Experimental findings from PubChem BioAssay AID330 (DTP/NCI, 2004) are described below.

The assay relates to P388 leukemia ip, CD2F1 mice, survival T/C. As to the kind of experiment: NCI In Vivo Anticancer Drug Screen. Data for tumor model P388 Leukemia (intraperitoneal) in CD2F1 (CDF1) mice. As to conditions: endpoint: median survival time, higher = longer survival. Summed up: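 Mice carrying the transplanted tumor received test compound or vehicle. Survival was recorded in each group, and the value is the treated-group measurement divided by that of the vehicle-treated control group.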

[1] abbreviates: dose: 50.0 mg/kg/injection, schedule: Q04DX003 (ip), vehicle: saline with Tween-80.
[2] abbreviates: dose: 100.0 mg/kg/injection, schedule: Q04DX003 (ip), vehicle: saline with Tween-80.
Where [3] appears, read: dose: 60.0 mg/kg/injection, schedule: Q01DX005 (ip), vehicle: saline with Tween-80.
The mark [4] stands for this setting: dose: 120.0 mg/kg/injection, schedule: Q01DX005 (ip), vehicle: saline with Tween-80.
Setting [5] is: dose: 240.0 mg/kg/injection, schedule: Q01DX005 (ip), vehicle: saline with Tween-80.
Where [6] appears, read: dose: 50.0 mg/kg/injection, schedule: Q01DX005 (ip), vehicle: saline with Tween-80.
The mark [7] stands for this setting: dose: 100.0 mg/kg/injection, schedule: Q01DX005 (ip), vehicle: saline with Tween-80.
Where [8] appears, read: dose: 200.0 mg/kg/injection, schedule: Q01DX005 (ip), vehicle: saline with Tween-80.
Setting [9] is: dose: 50.0 mg/kg/injection, schedule: Q01DX009 (ip), vehicle: saline.
The mark [10] stands for this setting: dose: 100.0 mg/kg/injection, schedule: Q01DX009 (ip), vehicle: saline.

Inconclusive results and toxic doses are left out.

Consider `CNC(=O)Oc1ccc2c(c1)[C@]1(C)CCN(C)[C@@H]1N2C`, for which the T/C was 98 % of control (dose: 0.05 mg/kg/injection, schedule: Q01DX005 (ip), vehicle: saline with Tween-80); 102 % of control (dose: 0.05 mg/kg/injection, schedule: Q01DX009 (ip), vehicle: saline); 99 % of control (dose: 0.1 mg/kg/injection, schedule: Q01DX005 (ip), vehicle: saline with Tween-80); 101 % of control (dose: 0.1 mg/kg/injection, schedule: Q01DX009 (ip), vehicle: saline); 99 % of control (dose: 0.2 mg/kg/injection, schedule: Q01DX005 (ip), vehicle: saline with Tween-80); 97 % of control (dose: 0.2 mg/kg/injection, schedule: Q01DX009 (ip), vehicle: saline). In addition, the T/C is 93 % of control (dose: 0.4 mg/kg/injection, schedule: Q01DX005 (ip), vehicle: saline with Tween-80) and 111 % of control (dose: 0.4 mg/kg/injection, schedule: Q01DX009 (ip), vehicle: saline).

For `O=C1CCC(=O)C1`, the T/C (dose: 60.0 mg/kg/injection, schedule: Q01DX005 (ip), vehicle: saline) was 100 % of control; the T/C (dose: 120.0 mg/kg/injection, schedule: Q01DX005 (ip), vehicle: saline) is 93 % of control; the T/C (dose: 240.0 mg/kg/injection, schedule: Q01DX005 (ip), vehicle: saline) was 105 % of control.

On to `CCNC(C)(C)C(SS)c1ccc(C(F)(F)F)cc1` (stereo not given), for which the T/C is 100 % of control (dose: 12.5 mg/kg/injection, schedule: Q04DX003 (ip), vehicle: saline with Tween-80); 110 % of control (dose: 25.0 mg/kg/injection, schedule: Q04DX003 (ip), vehicle: saline with Tween-80); 110 % of control under setting [1]; 100 % of control under setting [2]; 109 % of control (dose: 400.0 mg/kg/injection, schedule: Q04DX003 (ip), vehicle: saline with Tween-80).

Consider `C/C=C(\C)C(=O)OC1C2C(C)=CC(=O)C(O)C2(C)C2C3(O)OCC24C1OC(=O)C(OC(C)=O)C4C(C)C3O` (stereo not given), for which the T/C (dose: 2.5 mg/kg/injection, schedule: Q01DX009 (ip), vehicle: saline) was 155 % of control and the T/C (dose: 5.0 mg/kg/injection, schedule: Q01DX009 (ip), vehicle: saline) is 163 % of control.

Regarding `O=C(/C(=C(/[O-])C(F)(F)F)[n+]1cccc2ccccc21)C(F)(F)F`, the T/C under setting [3] is 104 % of control, the T/C under setting [4] is 91 % of control and the T/C under setting [5] was 99 % of control.

Regarding `OCCN(CCO)Cc1nc2cc(Cl)c(Cl)cc2[nH]1`, the T/C reads like this: (dose: 50.0 mg/kg/injection, schedule: Q01DX005 (ip), vehicle: saline) 97 % of control; (dose: 100.0 mg/kg/injection, schedule: Q01DX005 (ip), vehicle: saline) 112 % of control; (dose: 200.0 mg/kg/injection, schedule: Q01DX005 (ip), vehicle: saline) 90 % of control.

As to `CCNC(=O)C1CCN(Cc2c[nH]c3ccccc23)CC1`, the T/C runs as follows: under setting [1], 113 % of control; under setting [2], 93 % of control; (dose: 200.0 mg/kg/injection, schedule: Q04DX003 (ip), vehicle: saline with Tween-80) 102 % of control.

Turning to `Cc1cccc(/C=C/c2csnn2)n1`, the T/C is 105 % of control under setting [3], 104 % of control under setting [4] and 96 % of control under setting [5].

On to `CCOC(=O)C(NC(C)=O)(C(=O)OCC)c1ccc([N+](=O)[O-])cn1`, for which the T/C reads like this: (dose: 25.0 mg/kg/injection, schedule: Q01DX009 (ip), vehicle: other) 92 % of control; (dose: 50.0 mg/kg/injection, schedule: Q01DX009 (ip), vehicle: other) 90 % of control; (dose: 100.0 mg/kg/injection, schedule: Q01DX009 (ip), vehicle: other) 95 % of control; (dose: 200.0 mg/kg/injection, schedule: Q01DX009 (ip), vehicle: other) 95 % of control; (dose: 400.0 mg/kg/injection, schedule: Q01DX009 (ip), vehicle: other) 102 % of control.

`c1ccc(P(CCP(c2ccccc2)c2ccccc2)c2ccccc2)cc1`: the T/C runs as follows: (dose: 25.0 mg/kg/injection, schedule: Q04DX003 (ip), vehicle: Klucel (hydroxypropylcellulose) (HPC)) 117 % of control; (dose: 100.0 mg/kg/injection, schedule: Q04DX003 (ip), vehicle: Klucel (hydroxypropylcellulose) (HPC)) 153 % of control; (dose: 200.0 mg/kg/injection, schedule: Q04DX003 (ip), vehicle: Klucel (hydroxypropylcellulose) (HPC)) 161 % of control.

For `COc1cc(C2=N/C(=C/c3cccc(O)c3O)C(=O)O2)cc(OC)c1OC`, the T/C by setting is: (dose: 6.25 mg/kg/injection, schedule: Q01DX009 (ip), vehicle: Klucel (hydroxypropylcellulose) (HPC)) 101 % of control; (dose: 12.5 mg/kg/injection, schedule: Q01DX009 (ip), vehicle: Klucel (hydroxypropylcellulose) (HPC)) 96 % of control.

With `CC1=CC(=O)C(O)C2(C)C1CC1OC(=O)C(OC(=O)c3ccccc3)C3(O)C4(C)OCC13C2C(O)C4O` (stereo not given), the T/C is 101 % of control (dose: 0.75 mg/kg/injection, schedule: Q01DX005 (ip), vehicle: saline + alcohol); 101 % of control (dose: 1.5 mg/kg/injection, schedule: Q01DX005 (ip), vehicle: saline + alcohol); 108 % of control (dose: 3.0 mg/kg/injection, schedule: Q01DX005 (ip), vehicle: saline + alcohol); 105 % of control (dose: 6.0 mg/kg/injection, schedule: Q01DX005 (ip), vehicle: saline + alcohol).

For the compound `O=C(NNc1ccc(F)cc1)C12CC3CC(CC(C3)C1)C2`, the T/C reads like this: (dose: 12.5 mg/kg/injection, schedule: Q01DX009 (ip), vehicle: saline with Tween-80) 103 % of control; (dose: 25.0 mg/kg/injection, schedule: Q01DX009 (ip), vehicle: saline with Tween-80) 99 % of control; (dose: 50.0 mg/kg/injection, schedule: Q01DX009 (ip), vehicle: saline with Tween-80) 87 % of control.

As to `COc1ccc(/C=C/C2C(C#N)(C#N)C(OC)(OC)C2(OC)OC)cc1` (stereo not given), the T/C reads like this: (dose: 60.0 mg/kg/injection, schedule: Q01DX005 (ip), vehicle: Klucel (hydroxypropylcellulose) (HPC)) 101 % of control; (dose: 120.0 mg/kg/injection, schedule: Q01DX005 (ip), vehicle: Klucel (hydroxypropylcellulose) (HPC)) 102 % of control; (dose: 240.0 mg/kg/injection, schedule: Q01DX005 (ip), vehicle: Klucel (hydroxypropylcellulose) (HPC)) 98 % of control.

Take `O=C1CSCN1N1CSCC1=O`: the T/C is, setting by setting: under setting [6], 101 % of control; under setting [7], 102 % of control; under setting [8], 98 % of control.

Regarding `CC/C(=N\NS(=O)(=O)c1ccc(C)cc1)c1ccc(C)cc1`, the T/C runs as follows: (dose: 100.0 mg/kg/injection, schedule: Q04DX003 (ip), vehicle: saline) 100 % of control; (dose: 200.0 mg/kg/injection, schedule: Q04DX003 (ip), vehicle: saline) 98 % of control; (dose: 400.0 mg/kg/injection, schedule: Q04DX003 (ip), vehicle: saline) 98 % of control.

For the compound `O=C1C(O)=C(O)C(=O)C(O)=C1O`, the T/C runs as follows: under setting [9], 108 % of control; under setting [10], 111 % of control; (dose: 200.0 mg/kg/injection, schedule: Q01DX009 (ip), vehicle: saline) 117 % of control.

In the case of `COC(=O)C12OCC34C(CC5C(C)C6=CC(=O)OC6=CC5(C)C3C(O)C1O)OC(=O)C(OC(C)=O)C24` (stereo not given), the T/C reads like this: (dose: 18.37 mg/kg/injection, schedule: Q01DX005 (ip), vehicle: Klucel (hydroxypropylcellulose) (HPC)) 106 % of control; (dose: 36.75 mg/kg/injection, schedule: Q01DX005 (ip), vehicle: Klucel (hydroxypropylcellulose) (HPC)) 115 % of control.

Turning to `N=C(N)c1cccc([N+](=O)[O-])c1`, the T/C runs as follows: under setting [9], 98 % of control; under setting [10], 96 % of control.

As to `S=C(NCCN1CCN2Cc3[nH]c4ccccc4c3CC2C1)Nc1ccccc1` (stereo not given), the T/C runs as follows: under setting [6], 94 % of control; under setting [7], 91 % of control; under setting [8], 102 % of control.

`O=C(O)C1[N-]CCNC1C(=O)O.[O]=[V][OH]` (stereo not given): the T/C under setting [9] was 91 % of control.

As to `CC(=O)NC1=CC(=O)c2[nH]c(=O)[nH]c(=O)c2C1=O`, the T/C runs as follows: (dose: 3.0 mg/kg/injection, schedule: Q01DX005 (ip), vehicle: other) 99 % of control; (dose: 6.0 mg/kg/injection, schedule: Q01DX005 (ip), vehicle: other) 98 % of control; (dose: 12.0 mg/kg/injection, schedule: Q01DX005 (ip), vehicle: other) 100 % of control.
